Laboratory results as given in patent publication US8080668B2, “Thiazoles derivatives as AMPK activator” (Dr. Reddy's Laboratories Limited, priority 2005, dated 2011).

Tests used:
[1] = system: AMPK; experiment: AMPK activation potential, cell based ELISA with p-AMPK specific antibody, Hep G2 hepatoma liver cells; conditions: 10 μM compound, 24 hours; normalized to metformin at 2 mM = 100%; HepG2 cells
Procedure: (§1) The AMPK activation potential percentages in this specification are calculated with respect to the already known AMPK activator metformin. The percentages are obtained by normalizing the values obtained at concentrations in the range of 2 μM to 10 μM with that of metformin by considering the values obtained for metformin at 2 mM concentrations as 100%. However, the AMPK activation potential percentages can also be calculated with respect to other known AMPK activators also.
(§2) AMPK activation potential of the compounds of formula (I) was evaluated using a cell based ELISA approach. L6 muscle skeletal muscle and Hep G2 hepatoma liver cells were cultured for 48 hours prior to drug addition at various concentrations. Twenty four hours later, the cells were fixed and the ELISA plate developed following standard protocol using p-AMPK specific antibody.
(§3) Various cell lines such as HepG2 and L6 were revived from glycerol stocks (ATCC). The cells were maintained in a T 75 culture flask-containing medium (DMEM +10% fetal calf serum). On reaching a confluence of 70% to 80%, the cells were seeded in a 96 well plate at a density of 10×10^3 cells per well in DMEM +10% FCS medium. The plates were then incubated at 37° C. with 5% CO2 for 48 hours. Various concentrations of drugs were prepared in DMSO and diluted to required concentration with the medium and incubated at 37° C. with 5% CO2 for 24 hours. Cells were fixed with 4% formaldehyde in PBS for 30 minutes at 25-35° C. and washed three times with PBS containing 0.1% Triton X-100. Endogenous peroxidase was quenched with 0.6% H2O2 in PBS-T for 30 minutes and washed three times in PBS-T. The cells were then blocked with 10% FCS in PBS-T for 1hour. The cells were incubated for 8-12 hours with various concentrations of primary antibody in PBS-T containing 5% BSA at 4° C., followed by washing three times with PBS-T for 5 minutes and incubating with a secondary antibody (HRP conjugated 1:500 in PBS-T with 5% BSA for 1 hour at 25-35° C. The cells were washed three times with PBS-T for 5 minutes and twice with PBS and incubated with 100 μl TMB/H2O2 color developing solution for 15 minutes. The reaction was stopped with 50 μl of 1M H2SO4. The plate was then read at 460 nm using ELISA plate reader.
(§4) AMPK activation percentages for various compounds are given in the table below (AMPK activation potential percentages are obtained by normalizing the values obtained at 10 μM concentration with that of metformin by considering the values obtained for metformin at 2 mM concentrations as 100%).

[2] = system: AMPK; experiment: AMPK activation potential, cell based ELISA with p-AMPK specific antibody, L6 skeletal muscle cells; conditions: 10 μM compound, 24 hours, normalized to metformin at 2 mM = 100%
Procedure: as §1, §2, §3, §4

Row | SMILES | AMPK % activation (at 10 μM) HepG-2 hepatoma liver cells [1] [%] | AMPK % activation (at 10 μM) L6 skeletal muscle cells [2] [%] | melting point [°C]
1 | O=C(O)Cc1csc(Nc2ccc(F)cc2)n1 [Example 1-a, [2-(4-Fluoro-phenylamino)-thiazol-4-yl]-acetic acid] | 97.9 | 81 | –
2 | O=C(O)Cc1csc(Nc2ccc(Cl)cc2)n1 [Example 1-b, [2-(4-Chloro-phenylamino)-thiazol-4-yl]-acetic acid] | 87.11 | 102.63 | –
3 | Cc1ccc(Nc2nc(CC(=O)O)cs2)cc1 [Example 1-d, (2-p-Tolylamino-thiazol-4-yl)-acetic acid] | 97.11 | 99.55 | –
4 | O=C(O)Cc1csc(Nc2ccc(OC(F)(F)F)cc2)n1 [Example 1-e, [2-(4-Trifluoromethoxy-phenylamino)-thiazol-4-yl]-acetic acid] | 100.29 | 94.09 | –
5 | O=C(O)Cc1csc(Nc2ccc(OCc3ccccc3)cc2)n1 [Example 1-f, [2-(4-Benzyloxy-phenylamino)-thiazol-4-yl]-acetic acid] | 87.76 | 88.04 | 116 to 118
6 | O=C(O)Cc1csc(Nc2ccc(N3CCOCC3)cc2)n1 [Example 1-i, [2-(4-Morpholin-4-yl-phenylamino)-thiazol-4-yl]-acetic acid] | 69.71 | 109.09 | 198 to 199
7 | O=C(O)Cc1csc(Nc2ccc(Sc3ccc(Cl)cc3)cc2)n1 [Example 1-j, {2-[4-(4-Chloro-phenylsulfanyl)-phenylamino]-thiazol-4-yl}-acetic acid] | 97.56 | 97.09 | 191 to 192
8 | O=C(O)Cc1csc(Nc2ccc(Oc3ccc(Cl)cc3)cc2)n1 [Example 1-k, {2-[4-(4-Chloro-phenoxy)-phenylamino]-thiazol-4-yl}-acetic acid] | 97.56 | 96.19 | 192 to 193
9 | O=C(O)Cc1csc(Nc2ccc(-c3csc(-c4ccc(C(F)(F)F)cc4)n3)cc2)n1 [Example 1-l, (2-{4-[2-(4-Trifluoromethyl-phenyl)-thiazol-4-yl]-phenylamino}-thiazol-4-yl)-acetic acid] | 85.27 | 104.37 | 171 to 174
10 | O=C(O)Cc1csc(Nc2ccc(-c3csc(-c4ccccc4)n3)cc2)n1 [Example 1-m, {2-[4-(2-Phenyl-thiazol-4-yl)-phenylamino]-thiazol-4-yl}-acetic acid] | – | – | 148 to 150
11 | Cc1nc(-c2ccc(Nc3nc(CC(=O)O)cs3)cc2)cs1 [Example 1-n, {2-[4-(2-Methyl-thiazol-4-yl)-phenylamino]-thiazol-4-yl}-acetic acid] | 98.42 | 83.62 | 153 to 156
12 | O=C(O)Cc1csc(Nc2ccc(-c3ccccc3)cc2)n1 [Example 1-o, [2-(Biphenyl-4-ylamino)-thiazol-4-yl]-acetic acid] | – | – | 158 to 159
13 | CCCCc1ccc(Nc2nc(CC(=O)O)cs2)cc1 [Example 1-p, [2-(4-Butyl-phenylamino)-thiazol-4-yl]-acetic acid] | 75.77 | 102.26 | –
14 | O=C(O)Cc1csc(Nc2ccc(O)cc2)n1 [Example 1-s, [2-(4-Hydroxy-phenylamino)-thiazol-4-yl]-acetic acid] | 86.08 | 92.35 | –
15 | O=C(O)c1csc(Nc2ccc(Cl)cc2)n1 [Example 2-a, 2-(4-Chloro-phenylamino)-thiazole-4-carboxylic acid] | 97.26 | 94.90 | –
16 | Cc1nc(-c2ccc(Nc3nc(C(=O)O)cs3)cc2)cs1 [Example 2-b, 2-[4-(2-Methyl-thiazol-4-yl)-phenylamino]-thiazole-4-carboxylic acid] | – | – | 290 to 292
17 | O=C(O)c1csc(Nc2ccc(-c3csc(-c4ccccc4)n3)cc2)n1 [Example 2-c, 2-[4-(2-Phenyl-thiazol-4-yl)-phenylamino]-thiazole-4-carboxylic acid] | 96.35 | 102.19 | 283 to 286
18 | O=C(O)c1csc(Nc2ccc(-c3csc(-c4ccc(C(F)(F)F)cc4)n3)cc2)n1 [Example 2-d, 2-{4-[2-(4-Trifluoromethyl-phenyl)-thiazol-4-yl]-phenylamino}-thiazole-4-carboxylic acid] | 83.89 | 109.70 | –
19 | O=C(O)CCc1csc(Nc2ccc(C(F)(F)F)cc2)n1 [Example 3-e, 3-[2-(4-Trifluoromethyl-phenylamino)-thiazol-4-yl]-propionic acid] | 110.47 | 94.72 | –
